# Structures can show the parent of a compound that is named as a salt.
# Tested on: Malassezia furfur
# Experiment: Intrinsic anti-Malassezia potency, growth inhibition by optical density
# Type: cell-based
# Details: Malassezia furfur, read-out: Intrinsic Anti-Malassezia Potency (IC50, µM)
# Method: To measure the growth inhibition properties of test materials against Malassezia, we carried out the following protocol.
# Starting cultures are prepared by incubating with shaking at 31°. Cells (5 ml of culture) are collected by centrifugation and suspended in 50 ml fresh mDixon medium. […] The plates are shaken vigorously on a Heidolph Titramax 100 overnight at 31°. To increase the humidity, water-soaked cotton batting is placed over the plates.
# As a control, the optical density of untreated M. furfur is measured after overnight incubation. As another control, the optical density of the starting culture is measured. The difference between these optical densities represents the amount of growth of M. furfur.
row,Compound,IC50 [µM]
1,"O=C(O)CN(CC(=O)O)[C@@H]1CCCC[C@H]1N(CC(=O)O)CC(=O)O (relative stereo) [trans-1,2-Cyclohexylenedinitrilotetraacetic acid]",500
2,"CC(C)c1cccc(O)c(=O)c1 [1-Hydroxy-4-(1-methylethyl)cyclohepta-3,5,7-trien-2-one]",65
3,"O=C(O)CN(CCN(CC(=O)O)CC(=O)O)CC(=O)O [Ethylenediaminetetraacetic acid (EDTA), Ethylenediaminetetraacetic acid]",> 500
4,CCC(NCCNC(CC)C(=O)O)C(=O)O (stereo not shown) [Ethylenediiminodi-2-butanoic acid],> 500
5,N[C@@H](COP(=O)(O)O)C(=O)O [L-2-Amino-3-phosphopropanoic acid],> 500

# Same assay, conditions: Malassezia furfur; mDixon medium, overnight at 31°, optical density 600 nm; read-out: Intrinsic Anti-Malassezia Potency (IC50)
row,Compound,IC50 [µM]
1,"C1CNCCNCCNCCNCCNCCN1 [1,4,7,10,13,16-Hexaazacyclooctadecane]",> 500
2,"O=C(O)CN1CCCN(CC(=O)O)CCN(CC(=O)O)CCCN(CC(=O)O)CC1 [1,4,8,11-Tetraazacyclotetradecane-N,N',N"",N'''-tetraacetic acid]",> 500
3,"S=C(N=Nc1ccccc1)NNc1ccccc1 [1,5-Diphenyl-1,2,4,5-tetraazapent-1-en-3-thione]",62.5
4,"c1cnc2c(c1)ccc1cccnc12 [1,10-Phenanthroline]",166
5,Oc1ccc2ccccc2c1N=Nc1nccs1 [1-(2-Thiazoylazo)-2-naphthol],250
6,"c1ccc(-c2cccc(-c3ccccn3)n2)nc1 [2,2':6',2""-terpyridine]",86
7,"Cc1ccc2ccc3ccc(C)nc3c2n1 [2,9-dimethyl-1,10-phenanthroline]",> 480
8,NCCc1ccccn1 [2-(2-aminoethyl)-pyridine],> 500
9,"Cc1c(O)c(=O)ccn1C [3-Hydroxy-1,2-dimethyl-4(1H)-pyridone]",719
10,Oc1ccc(N=Nc2nccs2)c(O)c1 [4-(2-thiazolylazo)-resorcinol],> 900
11,"Oc1c(Cl)cc(Cl)c2cccnc12 [5,7-dichloro-8-hydroxyquinoline]",23.4
12,Oc1c(I)cc(Cl)c2cccnc12 [5-Chloro-8-hydroxy-7-iodoquinoline],65.5
13,Oc1cccc2cccnc12 [8-hydroxyquinoline],138
14,"CCCCCCCCOc1cccc(=O)n1O [HP-101, N-Hydroxy-6-octyloxypyridine-2(1H)one, ethanolamine salt]",54.6
15,"c1ccc(CN(CCN(Cc2ccccn2)Cc2ccccn2)Cc2ccccn2)nc1 [N,N,N',N-tetrakis(2-pyridylmethyl) ethylenediamine]",71
16,"O=C(O)CN(CCO)CCO [N,N-Bis(2-hydroxyethyl)glycine (Bicine), N,N-Bis(2-hydroxyethyl)glycine]",> 500
17,"NCCC(=O)N[C@@H](Cc1c[nH]cn1)C(=O)O [beta-Alanyl-L-histidine (L-Carnosine), beta-Alanyl-L-histidine]",> 500
18,O=c1cc(CO)occ1O [kojic acid],704
19,Cc1occc(=O)c1O [maltol],793

# Same assay, conditions: comment on Table 1 data
row,Compound,anti-fungal effectiveness (in words)
1,"O=C(O)CN(CCN(CC(=O)O)CC(=O)O)CC(=O)O [Ethylenediaminetetraacetic acid (EDTA), Ethylenediaminetetraacetic acid]",not to be effective

# Same assay, conditions: mDixon medium, overnight at 31°, optical density 600 nm; read-out: Intrinsic Anti-Malassezia Potency (IC50)
row,Compound,IC50 [µM]
1,zinc salt of 1-hydroxy-2-pyridinethione [Zinc Pyrithione],15

# Tested on: M. furfur 7982
# Experiment: Fractional Inhibitor Concentration (FIC) test of chelator combined with ZPT
# Type: cell-based
# Details: combination with ZPT (from 12.5ppm); chelator from 400ppm or 800ppm; 33°C, 2 days; average of duplicate plates
# From the text: Fractional Inhibitor Concentration (FIC) is a conventional methodology for evaluating antimicrobial interactions. In an embodiment of the present invention, an FIC is used to determine combinatorial effects of two chemicals on anti-Malassezia activity in a tissue culture setting.
# • 1. Each FIC assay is run in duplicate. • 2. Low levels of M. furfur 7982 cells are inoculated into each well of a 96 well plate. • 3. Chemical #1 (in our assays, this is always ZPT) is titrated (2x concentration reductions) from right to left across each row of the plate, starting at 12.5ppm final concentration and ending at 0ppm. • 4. […] Plates are incubated at 33°C, 60%RH for 2 days with agitation. • 6. Optical densities (OD's) are then determined using a spectrophotometer.
# 1. […]. The lowest concentration value of chemical #1, both by itself and with the lowest concentration of chemical #1 which boosts chemical #2's potency, that inhibit growth are determined (see Appendix 1). 4. Likewise, the lowest concentration of chemical #2, both by itself and with the lowest concentration of chemical #2 that boosts chemical #1's potency, that inhibit growth are determined (see Appendix 1). 5. The FIC value for the duplicate plates is determined using the calculations below: FIC = (lowest inhibitory dose of Chemical#1 by itself)/(inhibitory dose of Chemical#1 in a well that also contains Chemical#2also contains Chemical#1) + (lowest inhibitory dose of Chemical#2by itselflowest)/(lowest inhibitory dose of Chemical#2in a well that) [formula] ave FIC VALUE = (FIC value for plate 1+FIC value for plate2); 2 [formula] 6. The average FIC value is then determined, and the combinatorial effect of the two chemicals is classified according to the chart below: […]
row,Compound,FIC
1,"1,2-Dimethyl-3-hydroxy-4-pyridone, Zinc salt",0.5
2,"CCCCCCCCOc1cccc(=O)n1O [HP-101, N-Hydroxy-6-octyloxypyridine-2(1H)one, ethanolamine salt]",0.62
3,"O=C1c2cccc3cccc(c23)C(=O)N1O [N,N-Naphthaloylhydroxylamine]",0.8
4,Cc1occc(=S)c1O [Thiomaltol],0.8
5,"Benzohydroxamic acid, Zinc Salt",0.3
6,"Maltol, Zinc salt",0.1
7,"N-Hydroxy-6-octyloxypyridine-2(1H)one, zinc salt [HP-100 Zn]",0.7
8,"Thiomaltol, Zinc salt",0.5

# From EP2632470B1 (priority 2010, dated 2012)
